In PubChem BioAssay (NCI) one finds TGI and GI50 data, which are given here for eight compounds.

Several values for one entry are separate records, joined by “and”; a condition that tells them apart may be missing. Equal values may be shown once.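 All cell lines were grown in 96-well plates and treated with compound for 48 hours. GI50 marks 50% less growth. The concentration for full growth arrest is given as TGI.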

What all share (assay): NCI anticancer screen, dose series, 48 h
The test system of assay [1] is A549 NSCLC.
The subject of assay [2] is CCRF-CEM leukemia.
Assay [3] has as its system KM20L2 colon.
The subject of assay [4] is LXFL 529 NSCLC.
For assay [5], the system named is M14 melanoma.
The subject of assay [6] is PC-3 prostate.
For assay [7], the system named is SN12C renal.
The subject of assay [8] is SNB-75 CNS.
In assay [9] the test system is SW-620 colon.
In assay [10] the test system is UACC-257 melanoma.

In the case of `NC(=O)/C=C/c1c[nH]c2nccnc12`, the TGI in [1] was greater than 100 µM; in [2], 7.4 µM; in assay [3], 1.35 µM; in assay [4], 0.611 µM; in [5], 30.5 µM; in [6], 26.1 µM. Further, the TGI in [7] worked out at 11.4 µM; in assay [8], 4.46 µM; in assay [9] it was 10.5 µM; in assay [10] it was 52.8 µM.
On to `CN(C)C(=S)/N=C(\N)N(C)C`, for which the TGI in assay [1], in assay [2], in [3], in assay [4], in assay [5] and in [7] was greater than 100 µM in each case. In addition, the TGI in assay [8], in [9] and in [10] was greater than 100 µM each time.
For `CC[C@H](C)C(=O)O[C@H]1C[C@@H](C)C=C2C=C[C@H](C)[C@H](CC[C@@H]3C[C@@H](O)CC(=O)O3)[C@H]21`, the GI50 is 12.1 µM in assay [1]; 27.4 µM and 13.5 µM in [2]; 6.25 µM and 7.89 µM in assay [5]; 0.967 µM and 1.76 µM in assay [6]; 3.02 µM in [7]; 10 µM and 10.1 µM in assay [9]. In addition, in assay [10], the GI50 was 32.5 µM and > 46.2 µM. The TGI is greater than 100 µM in assay [1]; greater than 100 µM in [2]; greater than 30 µM in assay [3]; greater than 30 µM in assay [4]; greater than 100 µM in assay [5]; greater than 100 µM in assay [6]. In addition, the TGI in assay [9] and in assay [10] was greater than 100 µM throughout.
As to `CC(C)(C)CC(C)(C)c1cc2c(O)c(c1)Cc1cc(C(C)(C)CC(C)(C)C)cc(c1O)Cc1cc(C(C)(C)CC(C)(C)C)cc(c1O)Cc1cc(C(C)(C)CC(C)(C)C)cc(c1O)Cc1cc(C(C)(C)CC(C)(C)C)cc(c1O)Cc1cc(C(C)(C)CC(C)(C)C)cc(c1O)Cc1cc(C(C)(C)CC(C)(C)C)cc(c1O)Cc1cc(C(C)(C)CC(C)(C)C)cc(c1O)C2`, the TGI in assay [1], in assay [2], in assay [3], in [4], in assay [5] and in [7] was greater than 100 µM in each case. Besides, the TGI in assay [8], in assay [9] and in [10] was greater than 100 µM in each case.
`Cc1c(-c2cc(-c3ccccc3)n[nH]c2=O)c2ccccc2n1C`: the TGI in [1], in assay [2], in assay [3], in assay [4], in assay [5] and in [7] was greater than 100 µM each time. The TGI in assay [8], in [9] and in assay [10] was greater than 100 µM each time.
Turning to `CNC(=O)NCCCCC(NC(=O)OCc1ccccc1)C(=O)OCc1ccccc1` (stereo not drawn), the TGI is greater than 100 µM in [1]; 38.5 µM in assay [2]; greater than 100 µM in assay [3]; greater than 100 µM in [4]; 31.3 µM in [5]; 51.1 µM in [7]. The TGI in assay [8] is 41.6 µM; in [9], greater than 100 µM; in assay [10], 34.5 µM.
For the compound `O=C(/C=C/c1ccco1)N1CCN(Cc2ccccc2)CC1`, the TGI in [1], in [2], in assay [3], in [4], in assay [5] and in [7] was greater than 100 µM each time. For the same compound, the TGI in assay [8], in assay [9] and in assay [10] was greater than 100 µM in each case.
As for `C=CC(=O)OCCCS(=O)(=O)[O-].C=CC(=O)OCCCS(=O)(=O)[O-].NC1CCCCC1N.[Pt+4]`, the GI50 in [1], in [2], in assay [3], in assay [4], in assay [5] and in [7] was greater than 25 µM throughout. In addition, the GI50 in assay [8], in [9] and in assay [10] was greater than 25 µM each time. For the same compound, the TGI in assay [1], in assay [2], in [3], in [4], in assay [5] and in assay [7] was greater than 25 µM in each case. Further, the TGI in [8], in assay [9] and in assay [10] was greater than 25 µM in each case.
